In US11572590B2, “Methods for evaluating tumor cell spheroids using 3D microfluidic cell culture device” (Dana-Farber Cancer Institute, Inc., priority 2017, dated 2023):

Experiments:
[1] = system: CT26 spheroids lacking immune cells; test: Viability of CT26 spheroids lacking immune cells; type: cell-based
Description: Fresh tumor specimens (murine and human patients) were received in media (DMEM) on ice and minced in a 10 cm dish (on ice) using sterile forceps and scalpel. Minced tumor was resuspended in DMEM ([…], […] sodium pyruvate, 1:100 penicillin-streptomycin) (Corning CellGro, Manassas, Va.) +10% FBS (Gemini Bio-Products, West Sacramento, Calif.), 100 U/mL collagenase type IV (Life Technologies, Carlsbad, Calif.), and 15 mM HEPES (Life Technologies, Carlsbad, Calif.), except for CT26 tumors that were prepared in RPMI. Samples were pelleted and resuspended in 10-20 mL media. Red blood cells were removed from visibly bloody samples using RBC Lysis Buffer (Boston Bio-Products, Ashland, Mass.). […]
Dual labeling was performed by loading microfluidic device with Nexcelom ViaStain™ AO/PI Staining Solution (Nexcelom, CS2-0106). Following incubation with the dyes (20 minutes at room temperature in the dark), images were captured on a Nikon Eclipse 80i fluorescence microscope equipped with Z-stack (Prior) and CoolSNAP CCD camera (Roper Scientific). […] Live and dead cell quantitation was performed by measuring total cell area of each dye. […]

CT26 allograft = test: CT26 allograft, Compound 1 and anti-PD-L1 combination in vivo; set-up: species or system mouse; conditions: Compound 1 40 mg/kg oral gavage daily + anti-PD-L1 10 mg/kg every 5 days
Description: Combination studies were performed by vivoPharm (Hummelstown, Pa., USA). All procedures used in the performance of these studies were carried out in accordance with vivoPharm's Standard Operating Procedures, with particular reference to US_SOPvP_EF0314 “General Procedures for Efficacy Studies.” CT26 colon carcinoma cells (1×10^6 cells/mouse in 100 μL, passage 2-3) were re-suspended in serum-free DMEM and implanted in the upper right flank of 11-12 week old female Balb/c mice (Charles River Laboratories). Mice were randomized into four groups of 10 using a matched pair distribution method based on tumor size for CT26. Treatment was initiated 12 days post-inoculation with mean tumor volume at start of dosing of 125.85 mm^3. Vehicle or Compound 1 (40 mg/kg) was administered by oral gavage daily for 26 days and isotype control or a reverse chimera anti-PD-L1 cloned from literature reports (e.g., Deng, R. et al. MAbs (2016), the content of which is incorporated herein by reference in entirety) and placed into a mouse IgG1 framework (10 mg/kg) was administered every 5 days for a total of six doses. Investigators were not blinded to treatment groups. […] Mice were sacrificed on Day 13 and lung metastases were quantified (small ≤1 mm, medium >1 mm and ≤3 mm, large >3 mm). No large lung metastases were detected.

N#Cc1cc(-c2ncnc(Nc3ccc(N4CCN(C5COC5)CC4)cc3)n2)ccc1OC1CCOCC1 [Compound 1, 5-(4-((4-(4-(oxetan-3-yl)piperazin-1-yl)phenyl)amino)-1,3,5-triazin-2-yl)-2-((tetrahydro-2H-pyran-4-yl)oxy)benzonitrile]
cytotoxic effects on CT26 cell line spheroids (viability) [1]: without cytotoxic effects | survival, CT26 allograft, combination vs Cmpd1 or anti-PD-L1 alone (CT26 allograft): longer survival | tumour control, CT26 allograft, combination vs Cmpd1 or anti-PD-L1 alone (CT26 allograft): greater tumour control
